Assays:
Format in all cases: organism-based
Phaseolus vulgaris [1] = experiment: Phytotoxicity against Phaseolus vulgaris (dry bean) assessed as visual crop injury at 840 g a.i./ha applied pre-emergence measured at 14 days post-emergence relative to control; settings: in vivo, other, 336 h
Phaseolus vulgaris [2] = experiment: Phytotoxicity against Phaseolus vulgaris (dry bean) assessed as visual crop injury at 840 g a.i./ha applied pre-emergence measured at 7 days post-emergence relative to control; settings: in vivo, other, 168 h
Phaseolus vulgaris [3] = experiment: Phytotoxicity against Phaseolus vulgaris (dry bean) assessed as visual crop injury at 420 g a.i./ha applied pre-emergence measured at 28 days post-emergence relative to control; settings: in vivo, other, 672 h
Phaseolus vulgaris [4] = experiment: Phytotoxicity against Phaseolus vulgaris (dry bean) assessed as visual crop injury at 420 g a.i./ha applied pre-emergence measured at 7 days post-emergence relative to control; settings: in vivo, other, 168 h
Phaseolus vulgaris [5] = experiment: Phytotoxicity against Phaseolus vulgaris (Otebo dry beans) assessed as plant height at 840 g a.i./ha applied pre-emergence measured at 28 days post-emergence (reference value: 31 +/- 2 cm); settings: in vivo, other, 672 h
Phaseolus vulgaris [6] = experiment: Phytotoxicity against Phaseolus vulgaris (Kidney dry beans) assessed as plant height at 840 g a.i./ha applied pre-emergence measured at 28 days post-emergence (reference value: 33 +/- 1 cm); settings: in vivo, other, 672 h
Phaseolus vulgaris [7] = experiment: Phytotoxicity against Phaseolus vulgaris (White dry beans) assessed as plant height at 420 g a.i./ha applied pre-emergence measured at 28 days post-emergence (reference value: 31 +/- 2 cm); settings: in vivo, other, 672 h
Phaseolus vulgaris [8] = experiment: Phytotoxicity against Phaseolus vulgaris (Pinto dry beans) assessed as visual crop injury at 420 to 840 g a.i./ha applied pre-emergence measured at 28 days post-emergence relative to control; settings: in vivo, other, 672 h
Phaseolus vulgaris [9] = experiment: Phytotoxicity against Phaseolus vulgaris (Otebo dry beans) assessed as visual crop injury at 420 to 840 g a.i./ha applied pre-emergence measured at 28 days post-emergence relative to control; settings: in vivo, other, 672 h
Phaseolus vulgaris [10] = experiment: Phytotoxicity against Phaseolus vulgaris (dry bean) assessed as visual crop injury at 840 g a.i./ha applied pre-emergence measured at 28 days post-emergence relative to control; settings: in vivo, other, 672 h
Phaseolus vulgaris [11] = experiment: Phytotoxicity against Phaseolus vulgaris (Black dry bean) assessed as reduction in shoot dry weight applied pre-emergence relative to control; set-up: scale not given: the % may be the effect or the level left; settings: in vivo
Phaseolus vulgaris [12] = experiment: Phytotoxicity against Phaseolus vulgaris (Kidney dry beans) assessed as plant height at 420 g a.i./ha applied pre-emergence measured at 28 days post-emergence (reference value: 33 +/- 1 cm); settings: in vivo, other, 672 h
Phaseolus vulgaris [13] = experiment: Phytotoxicity against Phaseolus vulgaris (Cranberry dry beans) assessed as plant height at 420 g a.i./ha applied pre-emergence measured at 28 days post-emergence (reference value: 33 +/- 1 cm); settings: in vivo, other, 672 h
Phaseolus vulgaris [14] = experiment: Phytotoxicity against Phaseolus vulgaris (Black dry beans) assessed as plant height at 420 g a.i./ha applied pre-emergence measured at 28 days post-emergence (reference value: 28 +/- 1 cm); settings: in vivo, other, 672 h
Phaseolus vulgaris [15] = experiment: Phytotoxicity against Phaseolus vulgaris (Yellow eye dry beans) assessed as visual crop injury at 420 to 840 g a.i./ha applied pre-emergence measured at 28 days post-emergence relative to control; settings: in vivo, other, 672 h
Phaseolus vulgaris [16] = experiment: Phytotoxicity against Phaseolus vulgaris (White dry beans) assessed as visual crop injury at 420 to 840 g a.i./ha applied pre-emergence measured at 28 days post-emergence relative to control; settings: in vivo, other, 672 h
Phaseolus vulgaris [17] = experiment: Phytotoxicity against Phaseolus vulgaris (dry beans) assessed as change in seed moisture content at 420 to 840 g a.i./ha applied pre-emergence relative to control; settings: in vivo, other
Phaseolus vulgaris [18] = experiment: Phytotoxicity against Phaseolus vulgaris (White dry beans) assessed as reduction in yield at 840 g a.i./ha applied pre-emergence relative to control; set-up: scale not given: the % may be the effect or the level left; settings: in vivo, other
Phaseolus vulgaris [19] = experiment: Phytotoxicity against Phaseolus vulgaris (Otebo dry beans) assessed as reduction in yield at 840 g a.i./ha applied pre-emergence relative to control; set-up: scale not given: the % may be the effect or the level left; settings: in vivo, other
Phaseolus vulgaris [20] = experiment: Phytotoxicity against Phaseolus vulgaris (Brown dry beans) assessed as yield at 840 g a.i./ha applied pre-emergence (reference value: 2.3 +/- 0.1 tons/ha); settings: in vivo, other
Phaseolus vulgaris [21] = experiment: Phytotoxicity against Phaseolus vulgaris (Otebo dry beans) assessed as yield at 420 g a.i./ha applied pre-emergence (reference value: 3.1 +/- 0.1 tons/ha); settings: in vivo, other
Phaseolus vulgaris [22] = experiment: Phytotoxicity against Phaseolus vulgaris (Cranberry dry beans) assessed as yield at 420 g a.i./ha applied pre-emergence (reference value: 2.7 +/- 0.1 tons/ha); settings: in vivo, other
Phaseolus vulgaris [23] = experiment: Phytotoxicity against Phaseolus vulgaris (White dry beans) assessed as reduction in shoot dry weight at 840 g a.i./ha applied pre-emergence measured at 42 days post-emergence relative to control; set-up: scale not given: the % may be the effect or the level left; settings: in vivo, other, 1008 h
Phaseolus vulgaris [24] = experiment: Phytotoxicity against Phaseolus vulgaris (Pinto dry beans) assessed as shoot dry weight at 840 g a.i./ha applied pre-emergence measured at 42 days post-emergence (reference value: 134 +/- 11 g/m); settings: in vivo, other, 1008 h
Phaseolus vulgaris [25] = experiment: Phytotoxicity against Phaseolus vulgaris (Otebo dry beans) assessed as reduction in shoot dry weight at 840 g a.i./ha applied pre-emergence measured at 42 days post-emergence relative to control; set-up: scale not given: the % may be the effect or the level left; settings: in vivo, other, 1008 h
Phaseolus vulgaris [26] = experiment: Phytotoxicity against Phaseolus vulgaris (Brown dry beans) assessed as shoot dry weight at 840 g a.i./ha applied pre-emergence measured at 42 days post-emergence (reference value: 123 +/- 7 g/m); settings: in vivo, other, 1008 h
Phaseolus vulgaris [27] = experiment: Phytotoxicity against Phaseolus vulgaris (Cranberry dry beans) assessed as reduction in shoot dry weight at 840 g a.i./ha applied pre-emergence measured at 42 days post-emergence relative to control; set-up: scale not given: the % may be the effect or the level left; settings: in vivo, other, 1008 h
Phaseolus vulgaris [28] = experiment: Phytotoxicity against Phaseolus vulgaris (White dry beans) assessed as shoot dry weight at 420 g a.i./ha applied pre-emergence measured at 42 days post-emergence (reference value: 135 +/- 11 g/m); settings: in vivo, other, 1008 h
Phaseolus vulgaris [29] = experiment: Phytotoxicity against Phaseolus vulgaris (Cranberry dry beans) assessed as shoot dry weight at 420 g a.i./ha applied pre-emergence measured at 42 days post-emergence (reference value: 138 +/- 8 g/m); settings: in vivo, other, 1008 h
Phaseolus vulgaris [30] = experiment: Phytotoxicity against Phaseolus vulgaris (Yellow eye dry beans) assessed as plant height at 840 g a.i./ha applied pre-emergence measured at 28 days post-emergence (reference value: 33 +/- 1 cm); settings: in vivo, other, 672 h

## Cc1nn(-c2cc(NS(C)(=O)=O)c(Cl)cc2Cl)c(=O)n1C(F)F [SULFENTRAZONE]
Phaseolus vulgaris [1]
  Activity: 30%
Phaseolus vulgaris [2]
  Activity: 26%
Phaseolus vulgaris [3]
  Activity: 7%
Phaseolus vulgaris [4]
  Activity: 9%
Phaseolus vulgaris [5]
  Activity: 23 cm
Phaseolus vulgaris [6]
  Activity: 25 cm
Phaseolus vulgaris [7]
  Activity: 27 cm
Phaseolus vulgaris [8]
  Activity: 9.2%
Phaseolus vulgaris [9]
  Activity: 13.9%
Phaseolus vulgaris [10]
  Activity: 22%
Phaseolus vulgaris [11]
  Activity: 16%
Phaseolus vulgaris [12]
  Activity: 29 cm
Phaseolus vulgaris [13]
  Activity: 28 cm
Phaseolus vulgaris [14]
  Activity: 26 cm
Phaseolus vulgaris [15]
  Activity: 13.1%
Phaseolus vulgaris [16]
  Activity: 17.9%
Phaseolus vulgaris [17]
  Activity: Non-toxic
Phaseolus vulgaris [18]
  Activity: 52%
Phaseolus vulgaris [19]
  Activity: 26%
Phaseolus vulgaris [20]
  Crop_yield: 2.1 tons/ha
Phaseolus vulgaris [21]
  Crop_yield: 3 tons/ha
Phaseolus vulgaris [22]
  Crop_yield: 2.4 tons/ha
Phaseolus vulgaris [23]
  Activity: 30%
Phaseolus vulgaris [24]
  Activity: 128 g/m
Phaseolus vulgaris [25]
  Activity: 36%
Phaseolus vulgaris [26]
  Activity: 121 g/m
Phaseolus vulgaris [27]
  Activity: 40%
Phaseolus vulgaris [28]
  Activity: 130 g/m
Phaseolus vulgaris [29]
  Activity: 138 g/m
Phaseolus vulgaris [30]
  Activity: 25 cm
